Assays:
Type in all cases: biochemical
[1] = target: CDK2/Cyclin-A kinase complex (Homo sapiens, UniProt P24941); assay: CDK2 IMAP fluorescence polarization assay; conditions: Table E; read-out: CDK2cyA IMAP/IC50 [umol l − 1]
How it was run: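 Fluorescence polarization (IMAP) using purified active CDK2/Cyclin-A complex with a TAMRA-tagged Histone H1-derived peptide substrate; phosphorylated peptide bound by a metal-containing reagent raises polarization. Inhibition read as reduced fluorescence polarization signal.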

[2] = target: CDK4 (Homo sapiens, UniProt P11802); assay: CDK4 HTRF assay; conditions: Table E; read-out: CDK4 HTRF/IC50 [umol l − 1]
[3] = target: CDK4/Cyclin-D1 kinase complex (Homo sapiens, UniProt P11802); assay: CDK4 ELISA based assay, Rb Ser780 phosphorylation; conditions: Table E; read-out: CDK4 ELISA assay IC50 [umol l−]
Excerpt: The compounds that inhibit the CDK4 kinase activity would inhibit the signal output of the assay.

Chain of CDK4 (P11802 whole entry): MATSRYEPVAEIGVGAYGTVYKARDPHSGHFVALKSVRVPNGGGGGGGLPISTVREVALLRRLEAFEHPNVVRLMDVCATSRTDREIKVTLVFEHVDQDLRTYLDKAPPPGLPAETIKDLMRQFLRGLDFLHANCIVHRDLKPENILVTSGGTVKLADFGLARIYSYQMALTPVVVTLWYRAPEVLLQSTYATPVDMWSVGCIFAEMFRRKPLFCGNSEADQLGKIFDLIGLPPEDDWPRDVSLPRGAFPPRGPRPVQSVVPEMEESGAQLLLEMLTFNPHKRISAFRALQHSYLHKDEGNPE
Chain of CDK4 (P24385 whole entry partner): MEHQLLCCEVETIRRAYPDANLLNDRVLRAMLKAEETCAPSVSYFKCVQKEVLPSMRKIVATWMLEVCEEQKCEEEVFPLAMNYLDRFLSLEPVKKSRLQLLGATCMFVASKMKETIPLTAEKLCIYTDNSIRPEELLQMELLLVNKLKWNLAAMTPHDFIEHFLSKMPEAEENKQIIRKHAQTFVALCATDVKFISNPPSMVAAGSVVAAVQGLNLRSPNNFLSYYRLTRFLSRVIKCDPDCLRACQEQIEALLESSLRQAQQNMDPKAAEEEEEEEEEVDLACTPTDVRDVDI
Chain of CDK4/Cyclin-D1 kinase complex (P11802 whole entry): as the sequence (P11802 whole entry) above
Chain of CDK4/Cyclin-D1 kinase complex (P24385 whole entry partner): as the sequence (P24385 whole entry partner) above

| IC50 [1] | IC50 [2] | IC50 [3] | Structure (SMILES) |
| --- | --- | --- | --- |
| < 10000 nM | < 1000 nM | > 10000 nM | CCC(CC)n1c(COC)cc2cnc(Nc3ccc(N4CCNCC4)cc3)nc21 [Example 382] |
| > 10000 nM | > 10000 nM | 8000 nM | CC(=O)N1CCN(c2ccc(Nc3ncc4c(C)cn(C5CC5)c4n3)cc2)CC1 [Example 275] |
| < 1000 nM | < 1000 nM | < 1000 nM | CCC(CC)n1c(C=O)cc2cnc(Nc3ccc(N4CCN(C(C)=O)CC4)cc3)nc21 [Example 361, 2-[4-(4-Acetyl-piperazin-1-yl)-phenylamino]-7-(1-ethyl-propyl)-7H-pyrrolo[2,3-d]pyrimidine-6-carbaldehyde] |
| < 1000 nM | < 1000 nM | < 1000 nM | CCC(CC)n1c(C(=O)O)cc2cnc(Nc3ccc(N4CCNCC4)cc3)nc21 [Example 375, 7-(1-Ethyl-propyl)-2-(4-piperazin-1-yl-phenylamino)-7H-pyrrolo[2,3-d]pyrimidine-6-carboxylic acid] |
| > 10000 nM | > 10000 nM | < 10000 nM | Cc1cn(C2CCCCC2)c2nc(Nc3ccc4[nH]ncc4c3)ncc12 [Example 280] |
| < 1000 nM | < 1000 nM | < 1000 nM | CCC(CC)n1c(C(=O)O)cc2cnc(Nc3ccc(N4CCN(C(C)=O)CC4)cc3)nc21 [Example 374, 2-[4-(4-Acetyl-piperazin-1-yl)-phenylamino]-7-(1-ethyl-propyl)-7H-pyrrolo[2,3-d]pyrimidine-6-carboxylic acid] |
| 10000 nM | < 1000 nM | < 1000 nM | CC(=O)c1c(C)c2cnc(Nc3ccc(N4CCNCC4)cn3)nc2n1C1CCCC1 [Example 387] |
| < 10000 nM | < 1000 nM | < 1000 nM | CC(=O)N1CCN(c2ccc(Nc3ncc4ccn(C5CCCCCC5)c4n3)cc2)CC1 [Example 225] |
| < 1000 nM | < 1000 nM | < 1000 nM | Cc1cc2cnc(Nc3ccc(N4CCNCC4)cc3)nc2n1C1CCCC1 [Example 430] |
| < 1000 nM | < 1000 nM | < 1000 nM | CC(=O)c1c(C)c2cnc(Nc3ccc(N4CCNCC4)cc3)nc2n1C1CCCC1 [Example 383] |

Source: patent publication US20120207763A1, “PYRROLOPYRIMIDINE COMPOUNDS AND THEIR USES” (ASTEX THERAPEUTICS LIMITED, priority 2006, published 2012)
